Assay results reported in patent US7632918B2, “Semi-synthetic glycopeptides with antibiotic activity” (Novartis Vaccines and Diagnostics, Inc., priority 2005, dated 2009).
Converted amounts (≈) assume the structure as drawn.

How the values were obtained:
Assay in all cases: MIC, broth microdilution in Meuller-Hinton broth (NCCLS)
[1] = tested on: 533 S. epidermidis; assay type: cell-based, Staphylococus epidermidis; details: clinical isolate
Description: (§1) Antibacterial activity in vitro was investigated by broth microdilution method in Meuller-Hinton broth as recommended by NCCLS. All strains tested were clinical isolates either sensitive or resistant to natural glycopeptides. Results are reported in the tables as MIC (minimal inhibitory concentration) in μg/ml.
(§2) The glycopeptides were tested against a variety of strains, indicated below, including Staphylococus epidermidis, Staphylococus haemolyticus, glycopeptides-intermediate Staphylococus aureus (GISA), glocopeptide-sensitive Enterococcus faecalis (GSE), and glocopeptide-resistant Enterococcus faecalis (GRE). Results are shown in the table as minimum inhibitory concentration (MIC) in units of μg/ml: […]

[2] = tested on: 602 S. haemolyticus; assay type: cell-based, Staphylococus haemolyticus; details: clinical isolate
Description: as §1, §2

[3] = tested on: 3797 S. aureus (GISA); assay type: cell-based, Staphylococus aureus; details: glycopeptides-intermediate clinical isolate
Description: as §1, §2

[4] = tested on: 3798 S. aureus (GISA); assay type: cell-based, Staphylococus aureus; details: glycopeptides-intermediate clinical isolate
Description: as §1, §2

[5] = tested on: 568 E. faecium (GSE); assay type: cell-based; details: glycopeptide-sensitive clinical isolate
Description: as §1, §2

[6] = tested on: 569 E. faecium (GRE); assay type: cell-based; details: glycopeptide-resistant clinical isolate
Description: as §1, §2

[7] = tested on: 559 E. faecalis (GSE); assay type: cell-based, Enterococcus faecalis; details: glycopeptide-sensitive clinical isolate
Description: as §1, §2

[8] = tested on: 560 E. faecalis (GRE); assay type: cell-based, Enterococcus faecalis; details: glycopeptide-resistant clinical isolate
Description: as §1, §2

SMILES	MIC 533 S. epidermidis [1] [µg/mL]	MIC 602 S. haemolyticus [2] [µg/mL]	MIC 3797 S. aureus (GISA) [3] [µg/mL]	MIC 3798 S. aureus (GISA) [4] [µg/mL]	MIC 568 E. faecium (GSE) [5] [µg/mL]	MIC 569 E. faecium (GRE) [6] [µg/mL]	MIC 559 E. faecalis (GSE) [7] [µg/mL]	MIC 560 E. faecalis (GRE) [8] [µg/mL]
CCCCc1ccc(CN[C@@H](CCCN)C(=O)NC2(C)CC(OC3C(Oc4c5cc6cc4Oc4ccc(cc4Cl)C(O)C(NC(=O)C(CC(C)C)NC)C(=O)NC(CC(N)=O)C(=O)NC6C(=O)NC4C(=O)NC(C(=O)NC(C(=O)O)c6cc(O)cc(O)c6-c6cc4ccc6O)C(OC4CC(C)(N)C(O)C(C)O4)c4ccc(cc4)O5)OC(CO)C(O)C3O)OC(C)C2O)cc1 (some centres unmarked) [Compound 242]	0.25 (≈ 0.137 µM)	1 (≈ 0.55 µM)	4 (≈ 2.2 µM)	4 (≈ 2.2 µM)	0.5 (≈ 0.275 µM)	8 (≈ 4.4 µM)	1 (≈ 0.55 µM)	8 (≈ 4.4 µM)
CCCCc1ccc(CNCC(=O)NC2(C)CC(OC3C(Oc4c5cc6cc4Oc4ccc(cc4Cl)C(O)C(NC(=O)C(CC(C)C)NC)C(=O)NC(CC(N)=O)C(=O)NC6C(=O)NC4C(=O)NC(C(=O)NC(C(=O)NC)c6cc(O)cc(O)c6-c6cc4ccc6O)C(OC4CC(C)(N)C(O)C(C)O4)c4ccc(cc4)O5)OC(CO)C(O)C3O)OC(C)C2O)cc1 (centres unmarked) [Compound 77]	1 (≈ 0.564 µM)	2 (≈ 1.13 µM)	2 (≈ 1.13 µM)	2 (≈ 1.13 µM)	2 (≈ 1.13 µM)	8 (≈ 4.51 µM)	2 (≈ 1.13 µM)	8 (≈ 4.51 µM)
CCCCCCCCOc1ccc(CNCC(=O)NC2(C)CC(OC3C(Oc4c5cc6cc4Oc4ccc(cc4Cl)C(O)C(NC(=O)C(CC(C)C)NC)C(=O)NC(CC(N)=O)C(=O)NC6C(=O)NC4C(=O)NC(C(=O)NC(C(=O)O)c6cc(O)cc(O)c6-c6cc4ccc6O)C(OC4CC(C)(N)C(O)C(C)O4)c4ccc(cc4)O5)OC(CO)C(O)C3O)OC(C)C2O)cc1 (centres unmarked) [Compound 214]	1 (≈ 0.545 µM)	1 (≈ 0.545 µM)	4 (≈ 2.18 µM)	4 (≈ 2.18 µM)	0.5 (≈ 0.273 µM)	8 (≈ 4.36 µM)	1 (≈ 0.545 µM)	8 (≈ 4.36 µM)
CNC(CC(C)C)C(=O)NC1C(=O)NC(CC(N)=O)C(=O)NC2C(=O)NC3C(=O)NC(C(=O)NC(C(=O)O)c4cc(O)cc(O)c4-c4cc3ccc4O)C(OC3CC(C)(N)C(O)C(C)O3)c3ccc(cc3)Oc3cc2cc(c3OC2OC(CO)C(O)C(O)C2OC2CC(C)(NC(=O)CNCc3ccc(OCc4ccccc4)cc3)C(O)C(C)O2)Oc2ccc(cc2Cl)C1O (centres unmarked) [Compound 223]	2 (≈ 1.1 µM)	4 (≈ 2.21 µM)	8 (≈ 4.42 µM)	8 (≈ 4.42 µM)	2 (≈ 1.1 µM)	16 (≈ 8.83 µM)	2 (≈ 1.1 µM)	64 (≈ 35.3 µM)
CCCCOc1ccc(CNCC(=O)NC2(C)CC(OC3C(Oc4c5cc6cc4Oc4ccc(cc4Cl)C(O)C4NC(=O)C(NC(=O)C6NC(=O)C(CC(N)=O)NC(=O)C(NC(=O)C(CC(C)C)NC)C(O)c6ccc(c(Cl)c6)O5)c5ccc(O)c(c5)-c5c(O)cc(O)cc5C(C(=O)O)NC4=O)OC(CO)C(O)C3O)OC(C)C2O)cc1 (centres unmarked) [Compound 218]	0.13 (≈ 0.0779 µM)	0.13 (≈ 0.0779 µM)	0.5 (≈ 0.3 µM)	1 (≈ 0.599 µM)	0.5 (≈ 0.3 µM)	>64	1 (≈ 0.599 µM)	>64
CNC(CC(C)C)C(=O)NC1C(=O)NC(CC(N)=O)C(=O)NC2C(=O)NC3C(=O)NC(C(=O)NC(C(=O)NCc4ccc(F)cc4)c4cc(O)cc(O)c4-c4cc3ccc4O)C(O)c3ccc(c(Cl)c3)Oc3cc2cc(c3OC2OC(CO)C(O)C(O)C2OC2CC(C)(N)C(O)C(C)O2)Oc2ccc(cc2Cl)C1O (centres unmarked) [Compound 288]	2 (≈ 1.29 µM)	1 (≈ 0.643 µM)	4 (≈ 2.57 µM)	4 (≈ 2.57 µM)	0.13 (≈ 0.0835 µM)	>64	0.13 (≈ 0.0835 µM)	>64
CNC(CC(C)C)C(=O)NC1C(=O)NC(CC(N)=O)C(=O)NC2C(=O)NC3C(=O)NC(C(=O)NC(C(=O)O)c4cc(O)cc(O)c4-c4cc3ccc4O)C(OC3CC(C)(N)C(O)C(C)O3)c3ccc(cc3)Oc3cc2cc(c3OC2OC(CO)C(O)C(O)C2OC2CC(C)(NC(=O)CNCc3ccc(F)cc3)C(O)C(C)O2)Oc2ccc(cc2Cl)C1O (centres unmarked) [Compound 293]	4 (≈ 2.32 µM)	4 (≈ 2.32 µM)	8 (≈ 4.64 µM)	8 (≈ 4.64 µM)	4 (≈ 2.32 µM)	16 (≈ 9.29 µM)	4 (≈ 2.32 µM)	16 (≈ 9.29 µM)
CNC(CC(C)C)C(=O)NC1C(=O)NC(CC(N)=O)C(=O)NC2C(=O)NC3C(=O)NC(C(=O)NC(C(=O)O)c4cc(O)cc(O)c4-c4cc3ccc4O)C(OC3CC(C)(N)C(O)C(C)O3)c3ccc(cc3)Oc3cc2cc(c3OC2OC(CO)C(O)C(O)C2OC2CC(C)(NC(=O)CNCc3cc4ccccc4c4ccccc34)C(O)C(C)O2)Oc2ccc(cc2Cl)C1O (centres unmarked) [Compound 287]	2 (≈ 1.11 µM)	2 (≈ 1.11 µM)	16 (≈ 8.86 µM)	16 (≈ 8.86 µM)	2 (≈ 1.11 µM)	>64	2 (≈ 1.11 µM)	>64
CCCCc1ccc(CNCC(=O)NC2(C)CC(OC3C(Oc4c5cc6cc4Oc4ccc(cc4Cl)C(O)C(NC(=O)C(CC(C)C)NC)C(=O)NC(CC(N)=O)C(=O)NC6C(=O)NC4C(=O)NC(C(=O)NC(C(=O)O)c6cc(O)cc(O)c6-c6cc4ccc6O)C(OC4CC(C)(N)C(O)C(C)O4)c4ccc(cc4)O5)OC(CO)C(O)C3O)OC(C)C2O)cc1 (centres unmarked) [Compound 57, N′-p-BuBnHNCH2CO eremomycin]	0.5 (≈ 0.284 µM)	2 (≈ 1.14 µM)	4 (≈ 2.27 µM)	4 (≈ 2.27 µM)	0.5 (≈ 0.284 µM)	4 (≈ 2.27 µM)	0.5 (≈ 0.284 µM)	4 (≈ 2.27 µM)
CNC(CC(C)C)C(=O)NC1C(=O)NC(CC(N)=O)C(=O)NC2C(=O)NC3C(=O)NC(C(=O)NC(C(=O)O)c4cc(O)cc(O)c4-c4cc3ccc4O)C(OC3CC(C)(N)C(O)C(C)O3)c3ccc(cc3)Oc3cc2cc(c3OC2OC(CO)C(O)C(O)C2OC2CC(C)(NC(=O)C(N)CCCCN)C(O)C(C)O2)Oc2ccc(cc2Cl)C1O (centres unmarked) [Compound 203]	0.13 (≈ 0.0771 µM)	0.13 (≈ 0.0771 µM)	4 (≈ 2.37 µM)	8 (≈ 4.74 µM)	0.25 (≈ 0.148 µM)	16 (≈ 9.49 µM)	0.25 (≈ 0.148 µM)	>64
